From ChEMBL document CHEMBL1201862, “PubChem BioAssay data set” (2004)
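48-hour exposure; five concentrations; linearly interpolated endpoints. GI50: concentration for 50% inhibition of growth.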 Calls of active or inactive are those of the source. Cut-off read from the data, not from the text of the source: active = GI50 up to about 1.1 µM and inactive = higher.

Legend:
Experiment in all cases: inhibition of tumour cell growth, NCI panel, 48 h
[1] = tested on: SK-MEL-2
[2] = tested on: 786-0
[3] = tested on: HL-60
[4] = tested on: SK-OV-3
[5] = tested on: T47D
[6] = tested on: SNB-75
[7] = tested on: M14
[8] = tested on: HOP-92
[9] = tested on: PC-3
[10] = tested on: NCI-H23
[11] = tested on: OVCAR-4
[12] = tested on: MCF7
[13] = tested on: SF-539
[14] = tested on: UO-31
[15] = tested on: UACC-257
[16] = tested on: HOP-62
[17] = tested on: U-251
[18] = tested on: Hs-578T
[19] = tested on: IGROV-1
[20] = tested on: SF-295

Compound | GI50 [1] | GI50 [2] | GI50 [3] | GI50 [4] | GI50 [5] | GI50 [6] | GI50 [7] | GI50 [8] | GI50 [9] | GI50 [10] | GI50 [11] | GI50 [12] | GI50 [13] | GI50 [14] | GI50 [15] | GI50 [16] | GI50 [17] | GI50 [18] | GI50 [19] | GI50 [20]
CCOC(=O)CCc1cc(=O)oc2cc(O)cc(O)c12 | > 100 µM (inactive) | > 100 µM (inactive) | > 100 µM (inactive) | > 100 µM (inactive) | > 100 µM (inactive) | > 100 µM (inactive) | > 100 µM (inactive) | > 100 µM (inactive) | > 100 µM (inactive) | > 100 µM (inactive) | > 100 µM (inactive) | > 100 µM (inactive) | > 100 µM (inactive) | > 100 µM (inactive) | > 100 µM (inactive) | > 100 µM (inactive) | > 100 µM (inactive) | > 100 µM (inactive) | > 100 µM (inactive) | > 100 µM (inactive)
Nc1ccc2c(SCc3ccc([N+](=O)[O-])cc3)c3ccccc3nc2c1 | 16.4 µM (inactive) | 7.52 µM (inactive) | 1.31 µM (inactive) | 20.5 µM (inactive) | 8.02 µM (inactive) | 17.7 µM (inactive) | 11.4 µM (inactive) | 15.2 µM (inactive) | 16 µM (inactive) | 17 µM (inactive) | 14.1 µM (inactive) | 13.6 µM (inactive) | 16.4 µM (inactive) | 14 µM (inactive) | 16.4 µM (inactive) | 21.8 µM (inactive) | 18.2 µM (inactive) | 17.6 µM (inactive) | 19.5 µM (inactive) | 18.2 µM (inactive)
Cc1nc2cccc(F)c2c(=O)n1-c1nnc(C2CC2)s1 | > 10 µM (inactive) | > 10 µM (inactive) | > 10 µM (inactive) | > 10 µM (inactive) | > 10 µM (inactive) | > 10 µM (inactive) | > 10 µM (inactive) | > 10 µM (inactive) | > 10 µM (inactive) | > 10 µM (inactive) | > 10 µM (inactive) | > 10 µM (inactive) | > 10 µM (inactive) | > 10 µM (inactive) | > 10 µM (inactive) | > 10 µM (inactive) | > 10 µM (inactive) | > 10 µM (inactive) | > 10 µM (inactive) | > 10 µM (inactive)
CCOC(=O)/C=C/[C@H](O[Si](c1ccccc1)(c1ccccc1)c1ccccc1)C(C)(C)C | > 31.6 µM (inactive) | > 31.6 µM (inactive) | > 100 µM (inactive) | > 31.6 µM (inactive) | 11.5 µM (inactive) | > 31.6 µM (inactive) | 73.8 µM (inactive) | > 31.6 µM (inactive) | 10.5 µM (inactive) | > 31.6 µM (inactive) | > 31.6 µM (inactive) | > 31.6 µM (inactive) | > 31.6 µM (inactive) | > 31.6 µM (inactive) | 11.1 µM (inactive) | > 31.6 µM (inactive) | > 31.6 µM (inactive) | 20.5 µM (inactive) | > 31.6 µM (inactive) | > 31.6 µM (inactive)
C=C1C[C@H](O)[C@H](Br)C(C)(C)C12CCC(C)(Cl)C(Br)C2 (stereo not given in full) | 1 µM (active) | 5.48 µM (inactive) | 0.508 µM (active) | 3.03 µM (inactive) | 0.746 µM (active) | 1.94 µM (inactive) | 2.36 µM (inactive) | 1.5 µM (inactive) | 0.153 µM (active) | 0.445 µM (active) | 0.635 µM (active) | 3.25 µM (inactive) | 15.6 µM (inactive) | 7.93 µM (inactive) | 0.526 µM (active) | 2.26 µM (inactive) | 0.272 µM (active) | 5.2 µM (inactive) | 4.38 µM (inactive) | 1.19 µM (inactive)
N#Cc1cccc(N2C(=O)C3C4C=CC(C3C2=O)C2C(=O)N(c3cccc(C#N)c3)C(=O)C42)c1 (stereo not given) | 22.8 µM (inactive) | 33.1 µM (inactive) | > 80.9 µM (inactive) | 17.1 µM (inactive) | > 31.6 µM (inactive) | 6.12 µM (inactive) | 59 µM (inactive) | 15.2 µM (inactive) | > 100 µM (inactive) | 27.6 µM (inactive) | > 63.1 µM (inactive) | > 100 µM (inactive) | 29.3 µM (inactive) | 49.1 µM (inactive) | > 63.1 µM (inactive) | 18.3 µM (inactive) | 10.1 µM (inactive) | 40 µM (inactive) | 29.7 µM (inactive) | 17.1 µM (inactive)
Cc1ccc(S(=O)(=O)NC(=O)NC(C(=O)O)C(C)C)cc1 (stereo not given) | > 100 µM (inactive) | > 100 µM (inactive) | > 100 µM (inactive) | > 100 µM (inactive) | > 100 µM (inactive) | > 100 µM (inactive) | > 100 µM (inactive) | > 100 µM (inactive) | > 100 µM (inactive) | > 100 µM (inactive) | > 100 µM (inactive) | > 100 µM (inactive) | > 100 µM (inactive) | > 100 µM (inactive) | > 100 µM (inactive) | > 100 µM (inactive) | > 100 µM (inactive) | > 100 µM (inactive) | > 100 µM (inactive) | > 100 µM (inactive)
C#CCn1c(=O)c(C)cn(/C(=C/C(=O)OCC)C(=O)OCC)c1=O | 13.2 µM (inactive) | 2.84 µM (inactive) | 3.61 µM (inactive) | 21.9 µM (inactive) | 4.73 µM (inactive) | 15 µM (inactive) | 2.92 µM (inactive) | 3.01 µM (inactive) | 12.6 µM (inactive) | 9.57 µM (inactive) | 6.28 µM (inactive) | 2.97 µM (inactive) | 1.64 µM (inactive) | 11.3 µM (inactive) | 14.4 µM (inactive) | 15.8 µM (inactive) | 9.98 µM (inactive) | 10.6 µM (inactive) | 3.75 µM (inactive) | 18.5 µM (inactive)
C/C=C(\N=C=S)C(=O)OC1C(COC(C)=O)OC([C@]2(O)CC(=O)C(N)=C(C(=O)O)C2=O)C(O)C1OC1CC(OC)C(O)([C@@H](C)OC(=O)[C@@H](C)CC)C(C)O1 (stereo not given in full) | 9.33 µM (inactive) | 12.3 µM (inactive) | 2.12 µM (inactive) | 21.5 µM (inactive) | 11.2 µM (inactive) | 16.9 µM (inactive) | 16 µM (inactive) | 3.45 µM (inactive) | 15.7 µM (inactive) | 9.84 µM (inactive) | 4.26 µM (inactive) | 14.5 µM (inactive) | 7.53 µM (inactive) | 18.2 µM (inactive) | 15.4 µM (inactive) | 22.1 µM (inactive) | 9.27 µM (inactive) | 7.82 µM (inactive) | 17.7 µM (inactive) | 18.1 µM (inactive)
CCOC(=O)C(Cc1ccc(N(CCCl)CCCl)cc1)NC(=O)CCCN1C(=O)CN=C(c2ccccc2)c2cc(Cl)ccc21 (stereo not given) | 14.7 µM (inactive) | 10.2 µM (inactive) | 2.21 µM (inactive) | > 76.2 µM (inactive) | 3.55 µM (inactive) | 15.8 µM (inactive) | 7 µM (inactive) | 3.77 µM (inactive) | 11.7 µM (inactive) | 9.66 µM (inactive) | 18.6 µM (inactive) | 8.53 µM (inactive) | 6.37 µM (inactive) | 13.8 µM (inactive) | 3.6 µM (inactive) | 36.9 µM (inactive) | 27.3 µM (inactive) | 6.67 µM (inactive) | 4.37 µM (inactive) | 51.4 µM (inactive)
CCN(CC)c1ccc(/C=C/C2=NN(c3cccc(S(=O)(=O)O)c3)C3(C2)C(Cl)C(=O)N3c2nc3ccccc3s2)cc1 (stereo not given) | 12.5 µM (inactive) | 5.65 µM (inactive) | 1.89 µM (inactive) | 12.4 µM (inactive) | 3.06 µM (inactive) | 11.1 µM (inactive) | 12.4 µM (inactive) | 6.73 µM (inactive) | 8.28 µM (inactive) | 7.01 µM (inactive) | 4.89 µM (inactive) | 6.7 µM (inactive) | 3.32 µM (inactive) | 1.72 µM (inactive) | 7.24 µM (inactive) | 7.36 µM (inactive) | 3.4 µM (inactive) | 14.4 µM (inactive) | 4.88 µM (inactive) | 13.3 µM (inactive)
Cc1cc(NC(=O)NC(=O)c2ccccc2NC(=O)C(C)N)ccc1Oc1ncc(Br)cn1 (stereo not given) | 0.153 µM (active) | 0.0559 µM (active) | 0.0131 µM (active) | 0.0178 µM (active) | 15.1 µM (inactive) | < 0.01 µM (active) | 0.13 µM (active) | 1.92 µM (inactive) | 0.0391 µM (active) | 0.172 µM (active) | 5.36 µM (inactive) | 0.152 µM (active) | 0.0158 µM (active) | 0.216 µM (active) | 0.547 µM (active) | 0.0306 µM (active) | 0.202 µM (active) | 0.0159 µM (active) | 0.153 µM (active) | 0.0256 µM (active)
CCN(CC)CC(O)c1ccc2ccc3ccccc3c2c1 (stereo not given) | 16.1 µM (inactive) | 12.9 µM (inactive) | 14.1 µM (inactive) | 16 µM (inactive) | 20 µM (inactive) | 19.1 µM (inactive) | 16.3 µM (inactive) | 14.2 µM (inactive) | 15.8 µM (inactive) | 16.9 µM (inactive) | 17.4 µM (inactive) | 14.8 µM (inactive) | 12.6 µM (inactive) | 11.2 µM (inactive) | 16.4 µM (inactive) | 16.1 µM (inactive) | 13.3 µM (inactive) | 18.7 µM (inactive) | 16.2 µM (inactive) | 15.2 µM (inactive)
Oc1cc(-c2ccc(F)cc2)nc2ncc(Cl)cc12 | 26.2 µM (inactive) | 32.7 µM (inactive) | 3.38 µM (inactive) | 45.5 µM (inactive) | 48.4 µM (inactive) | 11.7 µM (inactive) | 26.9 µM (inactive) | 2.94 µM (inactive) | 20.2 µM (inactive) | 38.2 µM (inactive) | > 77.3 µM (inactive) | 12.3 µM (inactive) | 27.6 µM (inactive) | > 85.9 µM (inactive) | > 68.9 µM (inactive) | 32.2 µM (inactive) | 21.7 µM (inactive) | 19.9 µM (inactive) | 17.1 µM (inactive) | 18.1 µM (inactive)
